As usually defined, the Kd is the free concentration of one partner at which half of the binding sites on the other are occupied at equilibrium, for simple one-to-one binding. Low readings indicate higher affinity, high ones lower affinity. In general, MIC50 refers to the lowest concentration that inhibits either 50% of growth or 50% of the strains tested, depending on the study.

Converted amounts (≈) assume the structure as drawn.

From patent US20240424113A1, “CONJUGATES COMPRISING ANTIFUNGALS AND HEAT SHOCK PROTEIN 90 (HSP90) INHIBITORS AND METHODS OF USE THEREOF” (Bright Angel Therapeutics Inc., priority 2021, published 2024) come the findings set out here.

For data set [1], the target named is Hsp90 Nuclear Binding Domain (NBD) (Aspergillus fumigatus, UniProt P40292). The experiment in a line: Surface Plasmon Resonance (SPR) binding, A. fumigatus Hsp90 NBD. The conditions noted are these: biotinylated Hsp90 NBD on streptavidin chip, 25° C., 1:1 binding model; NB undefined. An outline of the steps:
(§1)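 Biacore S200 at 25° C; AviTag-biotinylated recombinant Hsp90 NBD captured on streptavidin chip at 2000-2500 RU. Compound dilution series run in HBS-P pH 7.4 with 2% DMSO at 40 μL/min, 60 s association and 600 s dissociation. Sensorgrams fitted to a 1:1 binding model.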

In another data set the test system is HepG2 cells. Put plainly: Mammalian cell toxicity (Cell Titer-Glo). The class given is cell-based. The procedure: Mammalian Cell Toxicity. HepG2 cells were seeded overnight at 500 cells/well in 384-well plate, then incubated with compounds (10-point concentration titration) for 48 h. Cell Titer-Glo® reagent ([…]) was added to each well and after 10-minute incubation at room temperature the luminescent signal was measured using an Envision plate reader (Perkin Elmer).
(Cellular ATP, detected with luciferase, serves as a proxy for viable cell number.)

For data set [2], the target named is Hsp90 Nuclear Binding Domain (NBD) (Candida albicans (strain SC5314 / ATCC MYA-2876) (Yeast), UniProt P46598). The experiment in a line: Surface Plasmon Resonance (SPR) binding, C. albicans Hsp90 NBD. The conditions noted are these: biotinylated Hsp90 NBD on streptavidin chip, 25° C., 1:1 binding model. An outline of the steps: as §1
A further data set concerns CaCl2. Put plainly: Antifungal sensitivity testing (broth microdilution MIC). The conditions noted are these: 96-well broth microdilution. The class given is cell-based. An outline of the steps: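 Broth microdilution MIC per a modified published protocol; compounds dissolved in DMSO, fluconazole in water; duplicates in at least two independent experiments. Fungicidal activity checked by spotting MIC-plate cultures onto YPD agar, read after 24 h at 30° C.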
On the technique in general: Dilution methods test growth across graded concentrations, often in twofold steps.

Hsp90 Nuclear Binding Domain (NBD) (Candida albicans (strain SC5314 / ATCC MYA-2876) (Yeast), UniProt P46598), sequence (P46598 1-218 limits assumed): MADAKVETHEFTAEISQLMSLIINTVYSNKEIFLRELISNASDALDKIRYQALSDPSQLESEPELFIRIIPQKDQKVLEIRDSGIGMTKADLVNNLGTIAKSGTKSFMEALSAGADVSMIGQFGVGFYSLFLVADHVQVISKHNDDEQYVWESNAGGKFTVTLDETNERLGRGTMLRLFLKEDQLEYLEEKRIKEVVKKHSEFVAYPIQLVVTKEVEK
Hsp90 Nuclear Binding Domain (NBD) (Aspergillus fumigatus, UniProt P40292), sequence (P40292 whole entry, looked up, the tested form may be a part): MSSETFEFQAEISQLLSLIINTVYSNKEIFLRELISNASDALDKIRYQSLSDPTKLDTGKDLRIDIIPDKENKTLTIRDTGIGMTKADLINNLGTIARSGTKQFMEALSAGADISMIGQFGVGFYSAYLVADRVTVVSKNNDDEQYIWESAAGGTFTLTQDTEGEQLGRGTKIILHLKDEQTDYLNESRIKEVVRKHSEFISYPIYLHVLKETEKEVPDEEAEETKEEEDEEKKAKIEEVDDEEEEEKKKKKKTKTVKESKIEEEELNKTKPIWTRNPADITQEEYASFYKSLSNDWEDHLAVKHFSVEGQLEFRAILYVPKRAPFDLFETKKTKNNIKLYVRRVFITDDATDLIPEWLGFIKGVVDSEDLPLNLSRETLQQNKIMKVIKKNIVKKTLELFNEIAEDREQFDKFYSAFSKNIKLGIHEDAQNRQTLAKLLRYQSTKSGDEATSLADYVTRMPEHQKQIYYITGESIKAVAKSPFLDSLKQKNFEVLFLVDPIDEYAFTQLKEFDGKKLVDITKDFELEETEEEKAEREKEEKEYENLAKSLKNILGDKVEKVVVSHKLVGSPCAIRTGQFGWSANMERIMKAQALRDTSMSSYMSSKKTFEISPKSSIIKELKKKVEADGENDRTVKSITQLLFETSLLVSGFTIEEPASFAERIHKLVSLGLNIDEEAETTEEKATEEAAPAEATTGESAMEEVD

For the compound `Nc1nc2sc(C(=O)N[C@@H]3CCN(C[C@@](O)(Cn4cncn4)c4ccc(F)cc4F)C3)cc2n(-c2ccc3c(c2)N(c2ccccc2)CCO3)c1=O` [Compound I-11, 3-amino-N-((R)-1-((R)-2-(2,4-difluorophenyl)-2-hydroxy-3-(1H-1,2,4-triazol-1-yl)propyl)pyrrolidin-3-yl)-2-oxo-1-(4-phenyl-3,4-dihydro-2H-benzo[b][1,4]oxazin-6-yl)-1,2-dihydrothieno[2,3-b]pyrazine-6-carboxamide], the values for the dissociation constant Kd in data set [1] and in data set [2] were 0.0248 µM and 0.0008 µM, respectively. The “HepG2 MIC50” value in the data set with HepG2 cells (Table 6, 48 h incubation) is 2.4 µM. Besides, the MIC50 against CaCl2 (Table 4) and in the data set on CaCl2 (Table 6) was 2.5 µM (≈ 1.81 µg/mL) in each case.

With `Cc1ccc(-n2c(=O)c(N)nc3sc(C(=O)NC4CCN(CC(O)(Cn5cncn5)c5ccc(F)cc5F)CC4)cc32)cc1Oc1ccccc1` (stereo not shown) [Compound I-12, 3-amino-N-(1-(2-(2,4-difluorophenyl)-2-hydroxy-3-(1H-1,2,4-triazol-1-yl)propyl)piperidin-4-yl)-1-(4-methyl-3-phenoxyphenyl)-2-oxo-1,2-dihydrothieno[2,3-b]pyrazine-6-carboxamide], the Kd in data set [1] was found to be 0.431 µM; in data set [2] it was 0.146 µM. In addition, the “HepG2 MIC50” value in the data set on HepG2 cells (Table 5, 48 h incubation) is over 10 µM; in the data set with HepG2 cells (Table 6, 48 h incubation), over 10 µM. Also, the MIC50 against CaCl2 (Table 4) and against CaCl2 (Table 6) was 0.18 µM (≈ 0.128 µg/mL) throughout.

Turning to `Nc1nc2scc(C(=O)NC3CCN(CC(O)(Cn4cncn4)c4ccc(F)cc4F)CC3)c2n(-c2ccc3c(c2)N(c2ccccc2)CCO3)c1=O` (stereo not shown) [Compound I-18, 3-amino-N-(1-(2-(2,4-difluorophenyl)-2-hydroxy-3-(1H-1,2,4-triazol-1-yl)propyl)piperidin-4-yl)-2-oxo-1-(4-phenyl-3,4-dihydro-2H-benzo[b][1,4]oxazin-6-yl)-1,2-dihydrothieno[2,3-b]pyrazine-7-carboxamide], the Kd is 0.741 µM in data set [1] and 0.459 µM in data set [2]. Also, the “HepG2 MIC50” value with HepG2 cells (Table 6, 48 h incubation) is over 50 µM. For the same compound, the MIC50 in the data set on CaCl2 (Table 4) and in the data set with CaCl2 (Table 6) was 20 µM (≈ 14.8 µg/mL) each time.

With `Nc1nc2sc(C(=O)NC3CCN(C[C@](O)(Cn4cncn4)c4ccc(F)cc4F)CC3)cc2n(-c2ccc3c(c2)N(c2ccccc2)CCC3)c1=O` [Compound I-21, (S)-3-amino-N-(1-(2-(2,4-difluorophenyl)-2-hydroxy-3-(1H-1,2,4-triazol-1-yl)propyl)piperidin-4-yl)-2-oxo-1-(1-phenyl-1,2,3,4-tetrahydroquinolin-7-yl)-1,2-dihydrothieno[2,3-b]pyrazine-6-carboxamide], the figures for the dissociation constant (Kd) in data set [1] and in data set [2] were 0.0373 µM and 0.0067 µM, respectively. Also, the “HepG2 MIC50” value in the data set with HepG2 cells (Table 5, 48 h incubation) is over 50 µM; with HepG2 cells (Table 6, 48 h incubation), over 50 µM. Besides, the values for the MIC50 against CaCl2 (Table 4) and against CaCl2 (Table 6) were 0.085 µM (≈ 0.0627 µg/mL) and 0.09 µM (≈ 0.0664 µg/mL), respectively.

For `Nc1nc2sc(C(=O)NC3CCN(C[C@](O)(Cn4cncn4)c4ccc(F)cc4F)CC3)cc2n(-c2ccc3ccn(-c4ccccc4)c3c2)c1=O` [Compound I-23, (S)-3-amino-N-(1-(2-(2,4-difluorophenyl)-2-hydroxy-3-(1H-1,2,4-triazol-1-yl)propyl)piperidin-4-yl)-2-oxo-1-(1-phenyl-1H-indol-6-yl)-1,2-dihydrothieno[2,3-b]pyrazine-6-carboxamide], the Kd in data set [1] was 0.046 µM; in data set [2] it was 0.0286 µM. The “HepG2 MIC50” value in the data set with HepG2 cells (Table 5, 48 h incubation) is over 50 µM; in the data set on HepG2 cells (Table 6, 48 h incubation), over 50 µM. Further, the MIC50 against CaCl2 (Table 4) and with CaCl2 (Table 6) was 0.35 µM (≈ 0.253 µg/mL) in each case.

Consider `Nc1nc2sc(C(=O)NC[C@H]3CO[C@](Cn4cncn4)(c4ccc(F)cc4F)C3)cc2n(-c2ccc3c(c2)N(c2ccccc2)CCO3)c1=O` [Compound I-27, N-(((3S,5S)-5-((1H-1,2,4-triazol-1-yl)methyl)-5-(2,4-difluorophenyl)tetrahydrofuran-3-yl)methyl)-3-amino-2-oxo-1-(4-phenyl-3,4-dihydro-2H-benzo[b][1,4]oxazin-6-yl)-1,2-dihydrothieno[2,3-b]pyrazine-6-carboxamide], for which the values for the Kd in data set [1] and in data set [2] were 0.0134 µM and 0.0092 µM, respectively. Further, the “HepG2 MIC50” value in the data set with HepG2 cells (Table 6, 48 h incubation) was over 10 µM. The MIC50 in the data set on CaCl2 (Table 4) and in the data set with CaCl2 (Table 6) was 2.5 µM (≈ 1.74 µg/mL) in each case.

For the compound `CC1(NC(=O)c2cc3c(nc(N)c(=O)n3-c3ccc4c(c3)N(c3ccccc3)CCO4)s2)CCN(CC(O)(Cn2cncn2)c2ccc(F)cc2F)CC1` (stereo not shown) [Compound I-31, 3-amino-N-(1-(2-(2,4-difluorophenyl)-2-hydroxy-3-(1H-1,2,4-triazol-1-yl)propyl)-4-methylpiperidin-4-yl)-2-oxo-1-(4-phenyl-3,4-dihydro-2H-benzo[b][1,4]oxazin-6-yl)-1,2-dihydrothieno[2,3-b]pyrazine-6-carboxamide], the Kd in data set [1] was found to be 0.0023 µM; in data set [2] it was 0.0003 µM. Besides, the “HepG2 MIC50” value with HepG2 cells (Table 5, 48 h incubation) is 4.6 µM; in the data set on HepG2 cells (Table 6, 48 h incubation), 4.6 µM. Moreover, the MIC50 against CaCl2 (Table 4) and against CaCl2 (Table 6) was 1 µM (≈ 0.754 µg/mL) each time.

In the case of `Nc1nc2sc(C(=O)NC3CCN(CC4COC(Cn5cncn5)(c5ccc(F)cc5F)C4)CC3)cc2n(-c2ccc3c(c2)N(c2ccccc2)CCO3)c1=O` (stereo not shown) [Compound I-32, N-(1-((5-((1H-1,2,4-triazol-1-yl)methyl)-5-(2,4-difluorophenyl)tetrahydrofuran-3-yl)methyl)piperidin-4-yl)-3-amino-2-oxo-1-(4-phenyl-3,4-dihydro-2H-benzo[b][1,4]oxazin-6-yl)-1,2-dihydrothieno[2,3-b]pyrazine-6-carboxamide], the dissociation constant (Kd) in data set [1] was determined as 0.0505 µM; in data set [2], 0.0036 µM. For the same compound, the “HepG2 MIC50” value in the data set on HepG2 cells (Table 6, 48 h incubation) turned out to be 8.2 µM. In addition, the MIC50 with CaCl2 (Table 4) and against CaCl2 (Table 6) was 2.5 µM (≈ 1.95 µg/mL) each time.

`Nc1nc2sc(C(=O)N[C@@H]3CCN(CCC(O)(Cn4cncn4)c4ccc(F)cc4F)C3)cc2n(-c2ccc3c(c2)N(c2ccccc2)CCO3)c1=O` (stereo partly drawn) [Compound I-36, 3-amino-N-((3R)-1-(3-(2,4-difluorophenyl)-3-hydroxy-4-(1H-1,2,4-triazol-1-yl)butyl)pyrrolidin-3-yl)-2-oxo-1-(4-phenyl-3,4-dihydro-2H-benzo[b][1,4]oxazin-6-yl)-1,2-dihydrothieno[2,3-b]pyrazine-6-carboxamide]: the Kd is 0.0037 µM in data set [1] and 0.0021 µM in data set [2]. Besides, in the data set with HepG2 cells (Table 6, 48 h incubation), the “HepG2 MIC50” value worked out at 1.9 µM. Besides, the MIC50 with CaCl2 (Table 4) and with CaCl2 (Table 6) was 8 µM (≈ 5.92 µg/mL) in each case.

For the compound `Nc1nc2sc(CNC3CCN(CC(O)(Cn4cncn4)c4ccc(F)cc4F)CC3)cc2n(-c2ccc3c(c2)N(c2ccccc2)CCO3)c1=O` (stereo not shown) [Compound I-47, 3-amino-6-(((1-(2-(2,4-difluorophenyl)-2-hydroxy-3-(1H-1,2,4-triazol-1-yl)propyl)piperidin-4-yl)amino)methyl)-1-(4-phenyl-3,4-dihydro-2H-benzo[b][1,4]oxazin-6-yl)thieno[2,3-b]pyrazin-2(1H)-one], the results for the Kd in data set [1] and in data set [2] were 0.55 µM and 0.289 µM, respectively. The “HepG2 MIC50” value with HepG2 cells (Table 5, 48 h incubation) stood at 4.4 µM; in the data set with HepG2 cells (Table 6, 48 h incubation), 4.4 µM. In addition, the MIC50 in the data set with CaCl2 (Table 4) and against CaCl2 (Table 6) was 1 µM (≈ 0.726 µg/mL) each time.
